Assay results: the supplement of paper PMC10307832

Experiments:
Assay in all cases: relative viability (nuclei count vs DMSO), 5 days (fraction); higher = more cells survive
Bromopyruvate + OSI-027 = compound: C(C(=O)C(=O)O)Br [Bromopyruvate] + COc1cccc2cc(-c3nc([C@H]4CC[C@H](C(=O)O)CC4)n4ncnc(N)c34)[nH]c12 [OSI-027] (partner 0.5 µM)
Summary of the method: (§1)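 After 5 days of treatment, lung cancer cells in 1536-well plates were fixed and stained in a single step (final 0.05% Triton X-100, 1% formaldehyde, 1 ug/ml Hoechst) and their nuclei counted on 4× images. Treatment had been applied by pin tool the day after seeding as one drug alone or as a fixed anchor-drug dose with five library-drug doses (not always all listed) in √10 steps. Relative viability is the nuclei count of treated wells divided by that of vehicle wells, and values are medians of duplicate plates.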

Bicalutamide + AZD7762 = compound: CC(O)(CS(=O)(=O)c1ccc(F)cc1)C(=O)Nc1ccc(C#N)c(C(F)(F)F)c1 [Bicalutamide] + NC(=O)Nc1cc(-c2cccc(F)c2)sc1C(=O)N[C@H]1CCCNC1 [AZD7762] (partner 0.2 µM)
Summary of the method: as §1

[1] = compound: CC(O)(CS(=O)(=O)c1ccc(F)cc1)C(=O)Nc1ccc(C#N)c(C(F)(F)F)c1 [Bicalutamide] + CCNC(=O)c1noc(-c2cc(C(C)C)c(O)cc2O)c1-c1ccc(CN2CCOCC2)cc1 [Luminespib] (partner 0.01 µM)
Summary of the method: as §1

Bicalutamide + Lapatinib = compound: CC(O)(CS(=O)(=O)c1ccc(F)cc1)C(=O)Nc1ccc(C#N)c(C(F)(F)F)c1 [Bicalutamide] + CS(=O)(=O)CCNCc1ccc(-c2ccc3ncnc(Nc4ccc(OCc5cccc(F)c5)c(Cl)c4)c3c2)o1 [Lapatinib] (partner 2 µM)
Summary of the method: as §1

Row | Cell Line | relative viability (Bromopyruvate + OSI-027; first compound 1 µM) | relative viability (Bromopyruvate + OSI-027; first compound 3.162 µM) | relative viability (Bromopyruvate + OSI-027; first compound 10 µM) | relative viability (Bromopyruvate + OSI-027; first compound 31.62 µM) | relative viability (Bromopyruvate + OSI-027; first compound 100 µM) | relative viability (Bicalutamide + AZD7762; first compound 0.08 µM) | relative viability (Bicalutamide + AZD7762; first compound 0.253 µM) | relative viability (Bicalutamide + AZD7762; first compound 0.8 µM) | relative viability (Bicalutamide + AZD7762; first compound 2.53 µM) | relative viability ([1]; first compound 0.08 µM) | relative viability ([1]; first compound 0.253 µM) | relative viability ([1]; first compound 0.8 µM) | relative viability ([1]; first compound 2.53 µM) | relative viability (Bicalutamide + Lapatinib; first compound 0.08 µM) | relative viability (Bicalutamide + Lapatinib; first compound 0.253 µM) | relative viability (Bicalutamide + Lapatinib; first compound 0.8 µM) | relative viability (Bicalutamide + Lapatinib; first compound 2.53 µM)
1 | 201T | 0.508 | 0.752 | 0.71 | 0.763 | 0.638 | 0.637 | 0.408 | 0.586 | 0.599 | 1.06 | 1.03 | 1.02 | 1.1 | 1.07 | 0.95 | 1.06 | 1.02
2 | A-427 | 0.562 | 0.466 | 0.418 | 0.42 | 0.422 | 0.807 | 0.677 | 0.855 | 0.583 | 1.02 | 0.761 | 1 | 0.763 | 0.945 | 1.08 | 1.19 | 1.1
3 | ABC-1 | 0.425 | 0.471 | 0.513 | 0.521 | 0.548 | 0.828 | 0.572 | 1.02 | 0.772 | 0.558 | 0.296 | 0.749 | 0.596 | 1.45 | 1.06 | 1.26 | 1.28
4 | BEN | 0.307 | 0.296 | 0.293 | 0.277 | 0.298 | 0.742 | 0.563 | 0.874 | 0.675 | 0.416 | 0.344 | 0.541 | 0.39 | 0.674 | 0.589 | 0.984 | 0.858
5 | CAL-12T | 0.578 | 0.675 | 0.85 | 0.595 | 0.764 | 0.729 | 0.655 | 0.703 | 0.68 | 0.707 | 0.38 | 0.712 | 0.454 | 0.809 | 0.661 | 0.891 | 0.581
6 | EKVX | 0.746 | 0.691 | 0.827 | 0.666 | 0.761 | 0.693 | 0.613 | 0.797 | 0.664 | 0.94 | 0.871 | 0.964 | 0.892 | 0.194 | 0.247 | 0.192 | 0.207
7 | EMC-BAC-2 | 0.384 | 0.382 | 0.397 | 0.397 | 0.405 | 1.05 | 1 | 1.09 | 0.735 | 1.13 | 1.14 | 1.17 | 1.06 | 0.85 | 0.735 | 0.912 | 0.833
8 | EPLC-272H | 0.245 | 0.244 | 0.359 | 0.251 | 0.301 | 0.155 | 0.297 | 0.215 | 0.239 | 0.178 | 0.293 | 1.17 | 0.154 | 0.788 | 0.771 | 0.92 | 0.875
9 | H3255 | 0.523 | 0.637 | 0.683 | 0.679 | 0.573 | 0.949 | 0.791 | 1.11 | 0.823 | 0.827 | 0.857 | – | 0.813 | 0.112 | 0.239 | 0.315 | 0.198
10 | HARA | 0.518 | 0.567 | 0.624 | 0.436 | 0.571 | 0.382 | – | 0.368 | 0.262 | 0.987 | 0.721 | 0.678 | 0.847 | 0.841 | 0.514 | 0.904 | 0.701
11 | HCC-15 | 0.711 | 0.779 | 0.781 | 0.715 | 0.654 | 1.07 | 1.05 | 1.2 | 1.09 | 0.445 | 0.294 | 0.57 | 0.62 | 0.797 | 0.813 | 0.966 | 0.875
12 | HCC-44 | 0.616 | 0.634 | 0.483 | 0.596 | 0.483 | 1.02 | 1.05 | 1.02 | 1.01 | 0.907 | 0.97 | 1.44 | 1.15 | 1.05 | 0.987 | 1.12 | 1.05
13 | HCC-827 | 0.779 | 0.799 | 0.803 | 0.778 | 0.805 | 0.234 | 0.124 | 0.217 | 0.227 | 0.704 | 0.676 | 1.35 | 0.668 | 0.171 | 0.178 | 0.171 | 0.193
14 | HOP-62 | 0.799 | 0.743 | 1.02 | 0.803 | 0.891 | 0.567 | 0.494 | 0.848 | 0.432 | 0.917 | 1.01 | 1.09 | 0.885 | 1.13 | 0.995 | 1.05 | 1.07
15 | LC-2-ad | 0.839 | 0.867 | 0.9 | 0.837 | 0.633 | 0.852 | 0.838 | 0.915 | 0.883 | 1.1 | 0.954 | 1.03 | 1.06 | 0.851 | 0.873 | 1.08 | 0.957
16 | LCLC-97TM1 | 0.53 | 0.482 | 0.735 | 0.522 | 0.51 | 0.388 | 0.186 | 0.225 | 0.232 | 0.793 | 0.659 | 0.941 | 0.829 | 0.857 | 0.971 | 1.1 | 1
17 | LK-2 | 0.235 | 0.2 | 0.21 | 0.223 | 0.218 | 0.432 | 0.254 | 0.442 | 0.495 | 0.161 | 0.167 | 0.175 | 0.21 | 0.901 | 0.852 | 1.11 | 0.898
18 | LOU-NH91 | 0.804 | 0.716 | 0.747 | 0.694 | 0.756 | 0.725 | 0.653 | 0.793 | 0.751 | 0.367 | 0.295 | 0.331 | 0.322 | 0.816 | 0.638 | 0.856 | 0.752
19 | LU99A | 0.288 | 0.27 | 0.386 | 0.278 | 0.317 | 0.431 | 0.286 | 0.544 | 0.252 | 0.268 | 0.236 | 0.286 | 0.205 | 0.958 | 0.847 | 1.28 | 0.798
